The values below are quoted from earlier work in US20210113536A1, “METHODS AND COMPOSITIONS FOR DETECTING AND TREATING VENOUS THROMBOEMBOLISM” (United States Government As Represented By The Department …, priority 2019, published 2021).

This data set deals with asymptomatic participants. The following applies: 20 mg of rosuvastatin, JUPITER trial.

Take `CC(C)c1nc(N(C)S(C)(=O)=O)nc(-c2ccc(F)cc2)c1/C=C/[C@@H](O)C[C@@H](O)CC(=O)O` [rosuvastatin]: the “occurrence of symptomatic VTE” value is recorded as “reduced occurrence of symptomatic VTE”.
